In experiment [1] the test system is cultured human mast cells (CHMC). Nature of the experiment: CHMC low cell density ionomycin activation: tryptase assay. Type of experiment: cell-based. As to conditions: Low Density CHMC, ionomycin activation, tryptase readout, read-out: CHMC Ionomycin Tryptase.
The test system is the same in experiment [2]. Nature of the experiment: CHMC low cell density IgE activation: tryptase and LTC4 assays. Type of experiment: cell-based. The settings on record: Low Density CHMC, anti-IgE activation, tryptase readout, read-out: CHMC anti-IgE Tryptase. On the procedure:
Pellet CHMC cells (980 rpm, 10 min) and resuspend in pre-warmed MT. Add 65 ul of cells to each 96-well plate. Depending on the degranulation activity for each particular CHMC donor, load 1000-1500 cells/well. Mix four times followed by a 1 hr incubation at 37° C. […] Stimulate cells by adding 25 ul of 6× anti-IgE solution to the appropriate plates. Add 25 ul MT to un-stimulated control wells. Mix twice following addition of the anti-IgE. Incubate at 37° C. for 30 minutes. […] Spin plates at 1000 rpm for 10 min to pellet cells. Transfer 25 ul of supernatant to a 96-well black bottom plate and add 100 ul of freshly diluted tryptase substrate solution to each well. Incubate plates at room temperature for 30 min.
Leukotriene C4 (LTC4) is also quantified using an ELISA kit on appropriately diluted supernatant samples (determined empirically for each donor cell population so that the sample measurement falls within the standard curve) following the supplier's instructions.

In the case of `Cn1nc(I)c2cc(Nc3ncc(F)c(Nc4ccc(I)c(O)c4I)n3)ccc21` [Compound R935221, N4-(2,4-Diiodo-3-hydroxypheny)-5-fluoro-N2-(3-iodo-1-methyl-indazoline-5-yl)-2,4-pyrimidinediamine], the IC50 in experiment [1] and in experiment [2] was over 10 µM each time.
For `Fc1cnc(Nc2cccc(OCc3ccccc3)c2)nc1Nc1cccc(OCc2ccccc2)c1` [Compound R926394, N2,N4-Bis(3-benzyloxyphenyl)-5-fluoro-2,4-pyrimidinediamine], the IC50 in experiment [1] (Homo sapiens, Mast cell) was over 10 µM; in experiment [2] (Homo sapiens, Mast cell), over 10 µM.
`Oc1cccc(Nc2nc(Nc3ccc(-n4cnc(Cl)c4Cl)cc3)ncc2F)c1` [Compound R926777, N2-[4-(4,5-Dichloro-1H-imidazol-1-yl)phenyl]-5-fluoro-N4-(3-hydroxyphenyl)-2,4-pyrimidinediamine]: the IC50 in experiment [1] (Homo sapiens, Mast cell) was over 10 µM; in experiment [2] (Homo sapiens, Mast cell), 0.378 µM.
The corresponding values for `CCOC(=O)c1nc(Nc2cccc(O)c2)nc(Nc2cccc(O)c2)c1[N+](=O)[O-]` [Compound R925849, N2,N4-Bis(3-hydroxyphenyl)-6-ethoxycarbonyl-5-nitro-2,4-pyrimidinediamine] are over 10 µM and 8.2 µM.
On to `COC(=O)c1cc2cc(Nc3ncc(F)c(Nc4ccc(C(C)(C)C)cc4)n3)ccc2o1` [Compound R926477, N4-(4-tert-Butylphenyl)-5-fluoro-N2-(2-methoxycarbonylbenzofuran-5-yl)-2,4-pyrimidinediamine], for which the IC50 is over 10 µM in experiment [1] (Homo sapiens, Mast cell) and 0.27 µM in experiment [2] (Homo sapiens, Mast cell).
The corresponding values for `COC(=O)c1ccc(Nc2ncc(F)c(Nc3ccc(C(=O)OC)cc3)n2)cc1` [Compound R945034, N2,N4-Bis(4-methoxycarbonylphenyl)-5-fluoro-2,4-pyrimidinediamine] are over 10 µM and 1.85 µM.
The corresponding values for `COC(=O)c1cc(N)cc(Nc2ncc(F)c(Nc3cc(N)cc(C(=O)OC)c3)n2)c1` [Compound R950134, N2,N4-Bis(3-amino-5-methoxycarbonylphenyl)-5-fluoro-2,4-pyrimidinediamine] are over 10 µM and 1.88 µM.
On to `COc1ccc(C)c(Nc2ncc(F)c(Nc3ccc4c(c3)OCCO4)n2)c1` [Compound R926896, N4-(3,4-Ethylenedioxyphenyl)-5-fluoro-N2-(5-methoxy-2-methylphenyl)-2,4-pyrimidinediamine], for which the IC50 in experiment [1] (Homo sapiens, Mast cell) is over 10 µM; in experiment [2] (Homo sapiens, Mast cell), 1.62 µM.
Consider `CCCCOc1ccc(Nc2cc(Nc3ccc4c(c3)OCCO4)ncc2F)cc1` [Compound R920671, N4-(4-n-Butyloxyphenyl)-N2-(3,4-ethylenedioxyphenyl)-5-fluoro-2,4-pyridinediamine], for which the IC50 in experiment [1] (Homo sapiens, Mast cell) was over 10 µM; in experiment [2] (Homo sapiens, Mast cell), over 10 µM.
Turning to `Fc1cnc(Nc2cccc(-c3nnn[nH]3)c2)nc1Nc1ccc2c(c1)OCCO2` [Compound R926843, 5-Fluoro-N4-(3,4-ethylenedioxyphenyl)-N2-[3-(tetrazol-5-yl)phenyl]-2,4-pyrimidinediamine], the IC50 was over 10 µM in experiment [1] (Homo sapiens, Mast cell) and 7.37 µM in experiment [2] (Homo sapiens, Mast cell).
Turning to `Fc1cnc(Nc2cccc(-c3ccccc3)c2)nc1Nc1cccc(-c2ccccc2)c1` [Compound R926403, N2,N4-Bis[(3-phenyl)phenyl]-5-fluoro-2,4-pyrimidinediamine], the IC50 in experiment [1] (Homo sapiens, Mast cell) was over 10 µM; in experiment [2] (Homo sapiens, Mast cell), over 10 µM.
In the case of `Nc1cc(Nc2ncc(F)c(Nc3ccc(Nc4ccccc4)c(N)c3)n2)ccc1Nc1ccccc1` [Compound R950125, N2,N4-Bis[3-amino-4-(N-phenylamino)-phenyl]-5-fluoro-2,4-pyrimidinediamine], the IC50 was found to be 6.3 µM in experiment [1] (Homo sapiens, Mast cell) and 1.38 µM in experiment [2] (Homo sapiens, Mast cell).
As to `Oc1ccc(-c2cnc(Nc3ccc4c(c3)OCCO4)nc2Nc2ccc3c(c2)OCCO3)cc1` [Compound R925816, N2,N4-Bis(3,4-ethylenedioxyphenyl)-5-(4-hydroxyphenyl)-2,4-pyrimidinediamine], the IC50 in experiment [1] (Homo sapiens, Mast cell) was over 10 µM; in experiment [2] (Homo sapiens, Mast cell), 6 µM.

Values taken from patent publication US10828301B2, “2,4-pyrimidinediamine compounds and their uses” (Rigel Pharmaceuticals, Inc, priority 2002, dated 2020).
